Source: patent publication US7297797B2, “Pyrrolines” (Bayer CropScience AG, priority 2002, dated 2007)
Like-named read-outs stand apart in the source and are kept apart here.

Assays:
[1] = test system: greenhouse red spider mite (Tetranychus urticae); assay: Tetranychus test (OP-resistant/dip treatment); type: in vivo; conditions: 168 h, 100 ppm active compound, infested bean plants (Phaseolus vulgaris) dipped, OP-resistant, after 7 d, read-out: Kill rate in % after 7 d
Description: Tetranychus Test (OP-Resistant/Dip Treatment)
• Solvent: 7 parts by weight of dimethylformamide • Emulsifier: 2 parts by weight of alkylaryl polyglycol ether
To produce a suitable preparation of active compound, 1 part by weight of active compound is mixed with the stated amounts of solvent and emulsifier, and the concentrate is diluted with emulsifier-containing water to the desired concentration.
Bean plants (Phaseolus vulgaris) which are heavily infested by all stages of the greenhouse red spider mite (Tetranychus urticae) are treated by being dipped into a preparation of active compound of the desired concentration.
After the desired period of time, the activity in % is determined. 100% means that all spider mites have been killed; 0% means that none of the spider mites have been killed.
In this test, for example, the following compounds of the preparation examples show good efficacy: […]

[2] = test system: caterpillars of the cotton bollworm (Heliothis armigera); assay: Heliothis armigera test; type: in vivo; conditions: Helicoverpa armigera, 168 h; 100 ppm active compound; soybean shoots (Glycine max) dipped; after 7 d; read-out: Kill rate in % after 7 d
Description: (§1) Heliothis armigera Test • Solvent: 7 parts by weight of dimethylformamide • Emulsifier: 2 parts by weight of alkylaryl polyglycol ether To produce a suitable preparation of active compound, 1 part by weight of active compound is mixed with the stated amounts of solvent and emulsifier, and the concentrate is diluted with emulsifier-containing water to the desired concentration. Soybean shoots (Glycine max) are treated by being dipped into the preparation of active compound of the desired concentration and are populated with caterpillars of the cotton bollworm (Heliothis armigera) while the leaves are still moist. After the desired period of time, the kill in % is determined. 100% means that all caterpillars have been killed; 0% means that none of the caterpillars have been killed. In this test, for example, the following compounds of the preparation examples show good activity: […]

[3] = test system: larvae of the mustard beetle (Phaedon cochleariae); assay: Phaedon larvae test; type: in vivo; conditions: 168 h, 100 ppm active compound, cabbage leaves (Brassica oleracea) dipped, after 7 d, read-out: Kill rate in % after 7 d
Description: as §1, with “Phaedon Larvae Test” for “Heliothis armigera Test”, “concentration. Cabbage leaves (Brassica oleracea)” for “concentration. Soybean shoots (Glycine max)”, “with larvae” for “with caterpillars”, “the mustard beetle (Phaedon cochleariae)” for “the cotton bollworm (Heliothis armigera)”, “all beetle larvae” for “all caterpillars”, “the beetle larvae” for “the caterpillars”

[4] = test system: caterpillars of the army worm (Spodoptera exigua); assay: Spodoptera exigua test; type: in vivo; conditions: 100 ppm active compound, cabbage leaves (Brassica oleracea) dipped
Description: as §1, with “Spodoptera exigua” for “Heliothis armigera”, “Cabbage leaves (Brassica oleracea)” for “Soybean shoots (Glycine max)”, “army worm (Spodoptera exigua)” for “cotton bollworm (Heliothis armigera)”

[5] = log P determination by HPLC on reversed-phase column (EEC Directive 79/831 Annex V.A8); type: physicochemical
Description: The log P values given in the preparation examples and tables above are determined in accordance with EEC Directive 79/831 Annex V.A8 by HPLC (High Performance Liquid Chromatography) on a reversed-phase column (C 18). Temperature: 43° C. In the acidic range, determination is carried out at pH 2.3 using the mobile phases 0.1% aqueous phosphoric acid and acetonitrile; linear gradient from 10% acetonitrile to 90% acetonitrile (in the tables marked with a)). In the neutral range, determination is carried out at pH 7.5 using the mobile phases 0.01 molar aqueous phosphate buffer solution and acetonitrile; linear gradient from 10% acetonitrile to 90% acetonitrile (in the tables marked with b)). Calibration is carried out using unbranched alkan-2-ones (of 3 to 16 carbon atoms) with known lopP values (determination of the log P values by the retention times using linear interpolation between two successive alkanones).

[6] = test system: caterpillars of the army worm (Spodoptera frugiperda); assay: Spodoptera frugiperda test; type: in vivo; conditions: 168 h, 100 ppm active compound, cabbage leaves (Brassica oleracea) dipped, after 7 d, read-out: Kill rate in % after 7 d
Description: as §1, with “Spodoptera frugiperda” for “Heliothis armigera”, “Cabbage leaves (Brassica oleracea)” for “Soybean shoots (Glycine max)”, “army worm (Spodoptera frugiperda)” for “cotton bollworm (Heliothis armigera)”

[7] = test system: caterpillars of the diamondback moth (Plutella xylostella); assay: Plutella test; type: in vivo; conditions: 100 ppm active compound, cabbage leaves (Brassica oleracea) dipped
Description: as §1, with “Plutella” for “Heliothis armigera”, “Cabbage leaves (Brassica oleracea)” for “Soybean shoots (Glycine max)”, “diamondback moth (Plutella xylostella)” for “cotton bollworm (Heliothis armigera)”

[8] = reversed-phase C18 HPLC column; acidic range, pH 2.3, 0.1% aqueous phosphoric acid/acetonitrile, 43° C.; marked a) in tables, read-out: log P (pH 2.3)
[9] = reversed-phase C18 HPLC column; neutral range, pH 7.5, 0.01 molar aqueous phosphate buffer/acetonitrile, 43° C.; marked b) in tables, read-out: log P (pH 7.5)

| Structure (SMILES) | pest or weed control at 100 ppm [1] | pest or weed control at 100 ppm [2] | pest or weed control at 100 ppm [3] | Kill rate in after 7 d [4] | chromatographic logP [5, 8] | chromatographic logP [5, 9] | pest or weed control at 100 ppm [6] | Kill rate in % after 7 d [7] |
| --- | --- | --- | --- | --- | --- | --- | --- | --- |
| CC(C)(C)c1noc(-c2ccc(-c3ccc(C4CCC(c5c(F)cccc5F)=N4)c(F)c3)cc2)n1 (centres unmarked) [Example 5, 3-tert-butyl-5-{4′-[5-(2,6-difluorophenyl)-3,4-dihydro-2H-pyrrol-2-yl]-3′-fluoro-1,1′-biphenyl-4-yl}-1,2,4-oxadiazole] | 98% | 100% | 100% | 100% | 5.79 | 6.06 | 100% | 100% |
| CCOC(=O)[C@H]1CC(c2c(F)cccc2F)=N[C@H]1c1ccc(-c2ccc(-c3noc(C(F)(F)F)n3)cc2)cc1 (racemic) [Example 8] | 95% | 100% | 100% | – | 5.18 | – | 100% | – |
| CC(C)Oc1ccc(-c2ccc(-c3ccc(C4CCC(c5c(F)cccc5F)=N4)cc3)cc2)s1 (centres unmarked) [Example 3, 5-(2,6-difluorophenyl)-2-[4′-(5-isopropoxy-2-thienyl)-1,1′-biphenyl-4-yl]-3,4-dihydro-2H-pyrrole] | – | 100% | 100% | – | 5.2 | – | 100% | – |
| N#Cc1cnn(-c2ccc(-c3ccc(C4CCC(c5c(F)cccc5F)=N4)cc3)cc2)c1 (centres unmarked) [Example 18] | 90% | – | 100% | – | 3.02 | 4.03 | 100% | – |
| CCOC(=O)[C@H]1CC(c2c(F)cccc2F)=N[C@H]1c1ccc(-c2ccc(-c3noc(C(C)(C)C)n3)cc2)cc1 (racemic) [Example 9] | – | 100% | 100% | – | 5.29 | – | 100% | – |
| COc1ccc(-c2ccc(-c3ccc(C4CCC(c5c(F)cccc5F)=N4)cc3)cc2)s1 (centres unmarked) [Example 2, 5-(2,6-difluorophenyl)-2-[4′-(5-methoxy-2-thienyl)-1,1′-biphenyl-4-yl]-3,4-dihydro-2H-pyrrole] | – | 100% | 100% | – | 4.35 | – | 100% | – |
| Cc1nc(-c2ccc(-c3ccc(C4CCC(c5c(F)cccc5F)=N4)cc3)cc2)cs1 (centres unmarked) [Example 22] | 90% | 100% | – | – | 3.35 | 4.68 | 100% | 100% |
| Cc1ccccc1C1=NC(c2ccc(-c3ccc(-c4nc(C(C)(C)C)no4)cc3)cc2)CC1 (centres unmarked) [Example 12] | 98% | 100% | 100% | – | 4.18 | – | 100% | – |
| Cc1ccccc1C1=NC(c2ccc(B3OC(C)(C)C(C)(C)O3)cc2)CC1 (centres unmarked) [II-1, 5-(2-methylphenyl)-2-[4-(4,4,5,5-tetramethyl-1,3,2-dioxaborolan-2-yl)phenyl]-3,4-dihydro-2H-pyrrole] | – | – | – | – | 2.25 | 4.98 | – | – |
| O=C(c1c(F)cccc1F)C1CC1c1ccc(Br)cc1F (centres unmarked) [[2-(4-bromo-2-fluorophenyl)cyclopropyl](2,6-difluorophenyl)methanone] | – | – | – | – | 4.31 | – | – | – |
| O=C(/C=C/c1ccc(Br)cc1F)c1c(F)cccc1F [(2E)-3-(4-bromo-2-fluorophenyl)-1-(2,6-difluoro-phenyl)-2-propen-1-one] | – | – | – | – | 4.18 | – | – | – |
| CC(=O)NC(CCC(=O)c1ccccc1C)c1ccc(Br)cc1 (centres unmarked) [N-[1-(4-bromophenyl)-4-(2-methylphenyl)-4-oxobutyl]acetamnide] | – | – | – | – | 3.33 | – | – | – |
| CC(=O)NC(CCC(=O)c1c(F)cccc1F)c1ccc(Br)cc1F (centres unmarked) [N-[1-(4-bromo-2-fluorophenyl)-4-(2,6-difluorophenyl)-4-oxobutyl]acetamide] | – | – | – | – | 2.74 | – | – | – |
| Cc1ccccc1C1=NC(c2ccc(-c3ccc(-c4noc(C(C)(C)C)n4)cc3)cc2)CC1 (centres unmarked) [Example 11] | 98% | 100% | 100% | – | 3.99 | – | 100% | – |
| Cc1ccccc1C1=NC(c2ccc(Br)cc2)CC1 (centres unmarked) [2-(4-bromophenyl)-5-(2-methylphenyl)-3,4-dihydro-2H-pyrrole] | – | – | – | – | 1.82 | 4.48 | – | – |
| CCOC(=O)[C@H]1CC(c2c(F)cccc2F)=N[C@H]1c1ccc(-c2ccc(-c3nc(C(C)(C)C)no3)cc2)cc1 (racemic) [Example 10] | – | 100% | 100% | – | 5.39 | – | 100% | – |
| CCOc1ccc(-c2ccc(-c3ccc(C4CCC(c5c(F)cccc5F)=N4)cc3)cc2)s1 (centres unmarked) [Example 1, 5-(2,6-difluorophenyl)-2-[4′-(5-ethoxy-2-thienyl)-1,1′-biphenyl-4-yl]-3,4-dihydro-2H-pyrrole] | 95% | 100% | 100% | – | 4.88 | 5.84 | 100% | 100% |
| Cc1ccccc1C1=NC(c2ccc(-c3ccc(-c4noc(C(F)(F)F)n4)cc3)cc2)CC1 (centres unmarked) [Example 4, 3-{4′-[5-(2-methylphenyl)-3,4-dihydro-2H-pyrrol-2-yl]-1,1′-biphenyl-4-yl}-5-(trifluoromethyl)-1,2,4-oxadiazole] | 95% | 100% | 100% | – | 3.32 | – | 100% | – |
| CC1(C)OB(c2ccc(C3CCC(c4c(F)cccc4F)=N3)c(F)c2)OC1(C)C (centres unmarked) [II-2, 5-(2,6-difluorophenyl)-2-[2-fluoro-4-(4,4,5,5-tetramethyl-1,3,2-dioxaborolan-2-yl)phenyl]-3,4-dihydro-2H-pyrrole] | – | – | – | – | 4.88 | – | – | – |
